Test results taken from US20250154173A1 (Merck Sharp & Dohme LLC, priority 2023, published 2025).

Target: T1, GST-RIPK1 (recombinant GST-RIPK1 kinase domain (residues 1-327)) (Homo sapiens, UniProt Q13546)
T1 construct: recombinant GST-RIPK1 kinase domain (residues 1-327) enzyme produced from baculovirus-transfected Sf21 cells; host or cells: baculovirus-transfected Sf21 insect cells
T1 sequence (Q13546 1-327): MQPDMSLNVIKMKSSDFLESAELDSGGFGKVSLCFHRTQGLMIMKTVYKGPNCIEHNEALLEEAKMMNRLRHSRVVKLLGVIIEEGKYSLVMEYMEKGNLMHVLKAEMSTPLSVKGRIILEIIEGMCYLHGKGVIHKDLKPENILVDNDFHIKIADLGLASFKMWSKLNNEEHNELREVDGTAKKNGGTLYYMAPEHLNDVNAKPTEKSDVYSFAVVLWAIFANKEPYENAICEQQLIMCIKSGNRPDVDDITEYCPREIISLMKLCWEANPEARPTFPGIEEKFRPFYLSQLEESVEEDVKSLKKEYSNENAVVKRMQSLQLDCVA
Test: RIPK1-ADP-Glo Enzymatic Assay
Type: biochemical
Settings: ten-point titration, top compound concentration of 100000 nM; 25 nM GST-RIPK1, 300 μM ATP, 3 μM dephosphorylated-MBP; 30 min pre-incubation, 150 min reaction
How it was run: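 ADP-Glo luminescence quantifies ADP formed over 150 minutes by 25 nM Sf21-produced GST-RIPK1 (1-327) using 300 μM ATP and 3 μM dephosphorylated MBP, following 30-minute compound preincubation at 1% DMSO. Ten-point 1:3 series from 100000 nM gave EC50 via four-parameter sigmoidal regression.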

Row | SMILES | EC50
1 | O=C1N2C(CC[C@H]2c2cnccn2)OC12CC(OCc1cc(Cl)ccc1-c1cnco1)C2 (stereo partly drawn) [Example 18.82, (5′S)-3-{[5-chloro-2-(1,3-oxazol-5-yl)phenyl]methoxy}-5′-(pyrazin-2-yl)tetrahydro-3′H-spiro[cyclobutane-1,2′-pyrrolo[2,1-b][1,3]oxazol]-3′-one] | 99 nM
2 | CC(O[C@H]1C[C@@]2(C1)O[C@@H]1CC[C@@H](c3cc(F)cc(F)c3)N1C2=O)c1ccc(F)cn1 (single isomer, unassigned) [Example 12.1, (1R,3R,5′S,7a′R)-5′-(3,5-difluorophenyl)-3-((R or S)-1-(5-fluoropyridin-2-yl)ethoxy)tetrahydro-3′H-spiro[cyclobutane-1,2′-pyrrolo[2,1-b]oxazol]-3′-one] | 390 nM
3 | O=C1N2[C@@H](CC[C@H]2c2cc(F)cc(F)c2)OC12CC(Oc1ccc(F)cn1)C2 (stereo partly drawn) [Example 9.37, (5′S,7a′R)-5′-(3,5-difluorophenyl)-3-[(5-fluoropyridin-2-yl)oxy]tetrahydro-3′H-spiro[cyclobutane-1,2′-pyrrolo[2,1-b][1,3]oxazol]-3′-one] | 19 nM
4 | O=C1N2[C@H](CC[C@H]2c2cnccn2)O[C@]12C[C@@H](Oc1ncnn3cccc13)C2 [Example 9.51, (1s,3R,5′R,7a′S)-5′-(pyrazin-2-yl)-3-(pyrrolo[2,1-f][1,2,4]triazin-4-yloxy)tetrahydro-3′H-spiro[cyclobutane-1,2′-pyrrolo[2,1-b]oxazol]-3′-one] | 56 nM
5 | O=C1N2[C@@H](CC[C@H]2c2cc(F)cc(F)c2)O[C@]12C[C@H](Oc1ncnn3cccc13)C2 [Example 9.22, (1r,3R,5′S,7a′R)-5′-(3,5-difluorophenyl)-3-[(pyrrolo[2,1-f][1,2,4]triazin-4-yl)oxy]tetrahydro-3′H-spiro[cyclobutane-1,2′-pyrrolo[2,1-b][1,3]oxazol]-3′-one] | 11 nM
6 | O=C1N2[C@@H](CC[C@H]2c2cnccn2)O[C@]12C[C@H](OCc1ccccc1)C2 [Example 4.1, ((1r),3R,5′S,7a′R)-3-(benzyloxy)-5′-(pyrazin-2-yl)tetrahydro-3′H-spiro[cyclobutane-1,2′-pyrrolo[2,1-b]oxazol]-3′-one] | 49 nM
7 | CC(OC1CC2(C1)OC1CCC(c3cc(F)cc(F)c3)N1C2=O)c1ccccc1 (single isomer, unassigned) [Example 15.4, ((1R or S),3R,5′S,7a′R)-5′-(3,5-difluorophenyl)-3-((R or S)-1-phenylethoxy)tetrahydro-3′H-spiro[cyclobutane-1,2′-pyrrolo[2,1-b]oxazol]-3′-one] | 19 nM
8 | O=C1N2[C@@H](CC[C@H]2c2cncc(F)c2)OC12CCC(OCc1ccccc1)CC2 (single isomer, unassigned) [Example 2.2, ((1s or r),4R,5′S,7a′R)-4-(benzyloxy)-5′-(5-fluoropyridin-3-yl)tetrahydro-3′H-spiro[cyclohexane-1,2′-pyrrolo[2,1-b]oxazol]-3′-one] | 595 nM
9 | O=C1N2[C@@H](CC[C@H]2c2cc(F)cc(F)c2)O[C@]12C[C@@H](Oc1cc(F)ncn1)C2 [Example 9.10, (1s,3S,5′S,7a′R)-5′-(3,5-difluorophenyl)-3-((6-fluoropyrimidin-4-yl)oxy)tetrahydro-3′H-spiro[cyclobutane-1,2′-pyrrolo[2,1-b]oxazol]-3′-one] | 35 nM
10 | Cn1cc(C2CCC3OC4(CC(Oc5cc(C#N)ncn5)C4)C(=O)N32)cn1 (single isomer, unassigned) [Example 6.2, 6-((((1s or r),3R,5′(S or R),7a′R)-5′-(1-methyl-1H-pyrazol-4-yl)-3′-oxotetrahydro-3′H-spiro[cyclobutane-1,2′-pyrrolo[2,1-b]oxazol]-3-yl)oxy)pyrimidine-4-carbonitrile] | 99000 nM
11 | N#Cc1cc(O[C@H]2C[C@@]3(C2)O[C@@H]2CC[C@@H](c4ccccc4)N2C3=O)ncn1 [Example 9.17, 6-{[(1r,3R,5′S,7a′R)-3′-oxo-5′-phenyltetrahydro-3′H-spiro[cyclobutane-1,2′-pyrrolo[2,1-b][1,3]oxazol]-3-yl]oxy}pyrimidine-4-carbonitrile] | 18 nM
12 | N#Cc1ccnc(O[C@H]2C[C@@]3(C2)O[C@@H]2CC[C@@H](c4cc(F)cc(F)c4)N2C3=O)n1 [Example 9.57, 2-(((1r,3R,5′S,7a′R)-5′-(3,5-difluorophenyl)-3′-oxotetrahydro-3′H-spiro[cyclobutane-1,2′-pyrrolo[2,1-b]oxazol]-3-yl)oxy)pyrimidine-4-carbonitrile] | 69 nM
13 | O=C1N2[C@@H](CC[C@H]2c2cc(F)cc(F)c2)OC12CC(Oc1ccccc1)C2 (single isomer, unassigned) [Example 16.1, ((1s or r),3R,5′S,7a′R)-5′-(3,5-difluorophenyl)-3-phenoxytetrahydro-3′H-spiro[cyclobutane-1,2′-pyrrolo[2,1-b]oxazol]-3′-one] | 30 nM
14 | Cn1cc(C2CCC3OC4(CC(Oc5cc(C#N)ncn5)C4)C(=O)N32)cn1 (single isomer, unassigned) [Example 6.1, 6-((((1r or s),3R,5′(S or R),7a′R)-5′-(1-methyl-1H-pyrazol-4-yl)-3′-oxotetrahydro-3′H-spiro[cyclobutane-1,2′-pyrrolo[2,1-b]oxazol]-3-yl)oxy)pyrimidine-4-carbonitrile] | 93400 nM

The next lines start with the values.

Row | EC50 | SMILES
15 | 83 nM | O=C1N2C(CC[C@H]2c2cnccn2)OC12CC(OCc1cccc3cncc(F)c13)C2 (stereo partly drawn) [Example 18.72, (5′S)-3-[(4-fluoroisoquinolin-5-yl)methoxy]-5′-(pyrazin-2-yl)tetrahydro-3′H-spiro[cyclobutane-1,2′-pyrrolo[2,1-b][1,3]oxazol]-3′-one]
16 | 736 nM | O=C1N2C(CC[C@H]2c2cnccn2)OC12CC(OCc1ccccc1-n1cccn1)C2 (stereo partly drawn) [Example 18.102, (5′S)-5′-(pyrazin-2-yl)-3-{[2-(1H-pyrazol-1-yl)phenyl]methoxy}tetrahydro-3′H-spiro[cyclobutane-1,2′-pyrrolo[2,1-b][1,3]oxazol]-3′-one]
17 | 96 nM | O=C1N2C(CC[C@H]2c2cnccn2)OC12CC(OCc1cnn(-c3ccncc3)c1)C2 (stereo partly drawn) [Example 18.52, (5′S)-5′-(pyrazin-2-yl)-3-{[1-(pyridin-4-yl)-1H-pyrazol-4-yl]methoxy}tetrahydro-3′H-spiro[cyclobutane-1,2′-pyrrolo[2,1-b][1,3]oxazol]-3′-one]
18 | 109 nM | O=C1N2C(CC[C@H]2c2cnccn2)OC12CC(OCc1ccc3nccn3c1)C2 (stereo partly drawn) [Example 18.69, (5′S)-3-[(imidazo[1,2-a]pyridin-6-yl)methoxy]-5′-(pyrazin-2-yl)tetrahydro-3′H-spiro[cyclobutane-1,2′-pyrrolo[2,1-b][1,3]oxazol]-3′-one]
19 | 74 nM | O=C1N2C(CC[C@H]2c2cnccn2)OC12CC(OCc1ccc3nc(C4CC4)cn3c1)C2 (stereo partly drawn) [Example 18.22, (5′S)-3-[(2-cyclopropylimidazo[1,2-a]pyridin-6-yl)methoxy]-5′-(pyrazin-2-yl)tetrahydro-3′H-spiro[cyclobutane-1,2′-pyrrolo[2,1-b][1,3]oxazol]-3′-one]
20 | 11 nM | O=C1N2[C@@H](CC[C@H]2c2cnccn2)OC12CC(Oc1ccc(F)c(F)c1)C2 (stereo partly drawn) [Example 19.5, (5′S,7a′R)-3-(3,4-difluorophenoxy)-5′-(pyrazin-2-yl)tetrahydro-3′H-spiro[cyclobutane-1,2′-pyrrolo[2,1-b][1,3]oxazol]-3′-one]
21 | 225 nM | O=C1N2C(CC[C@H]2c2cnccn2)OC12CC(OCc1cccc(N3CCCC3)n1)C2 (stereo partly drawn) [Example 18.96, (5′S)-5′-(pyrazin-2-yl)-3-{[6-(pyrrolidin-1-yl)pyridin-2-yl]methoxy}tetrahydro-3′H-spiro[cyclobutane-1,2′-pyrrolo[2,1-b][1,3]oxazol]-3′-one]
22 | 91 nM | O=C1N2[C@@H](CC[C@H]2c2cnccn2)OC12CC(OCc1ccnc3ccnn13)C2 (stereo partly drawn) [Example 18.60, (5′S)-5′-(pyrazin-2-yl)-3-[(pyrazolo[1,5-a]pyrimidin-7-yl)methoxy]tetrahydro-3′H-spiro[cyclobutane-1,2′-pyrrolo[2,1-b][1,3]oxazol]-3′-one]
23 | 16 nM | N#Cc1ccc(COC2CC3(C2)OC2CC[C@@H](c4cnccn4)N2C3=O)c2cccnc12 (stereo partly drawn) [Example 18.14, 5-({[(5′S)-3′-oxo-5′-(pyrazin-2-yl)tetrahydro-3′H-spiro[cyclobutane-1,2′-pyrrolo[2,1-b][1,3]oxazol]-3-yl]oxy}methyl)quinoline-8-carbonitrile]
24 | 130 nM | N#CCCc1ccc(COC2CC3(C2)OC2CC[C@@H](c4cnccn4)N2C3=O)cc1 (stereo partly drawn) [Example 18.95, 3-[4-({[(5′S)-3′-oxo-5′-(pyrazin-2-yl)tetrahydro-3′H-spiro[cyclobutane-1,2′-pyrrolo[2,1-b][1,3]oxazol]-3-yl]oxy}methyl)phenyl]propanenitrile]
25 | 198 nM | N#CCc1ncc(COC2CC3(C2)OC2CC[C@@H](c4cnccn4)N2C3=O)cc1Cl (stereo partly drawn) [Example 18.98, [3-chloro-5-({[(5′S)-3′-oxo-5′-(pyrazin-2-yl)tetrahydro-3′H-spiro[cyclobutane-1,2′-pyrrolo[2,1-b][1,3]oxazol]-3-yl]oxy}methyl)pyridin-2-yl]acetonitrile]
26 | 474 nM | Cn1ccc([C@@H]2CC[C@H]3OC4(CC(Oc5cccnc5)C4)C(=O)N32)n1 (stereo partly drawn) [Example 19.8, (5′S,7a′R)-5′-(1-methyl-1H-pyrazol-3-yl)-3-[(pyridin-3-yl)oxy]tetrahydro-3′H-spiro[cyclobutane-1,2′-pyrrolo[2,1-b][1,3]oxazol]-3′-one]
